pEC50: −log10 of the molar value. Where two headings read alike, the source gives them in different places.
Legend:
Type in all cases: cell-based, HIV-1
[1] = test system: HIV-IIIb (wildtype); assay: Antiviral assay in MT4 cells, HIV-IIIb wildtype; conditions: read-out: WT EC50
Method: (§1) Antiviral Assay in MT4 Cells
(§2) For the antiviral assay, 0.4 μL of 189X test concentration of 3-fold serially diluted compound in DMSO was added to 40 μL of cell growth medium (RPMI 1640, 10% FBS, 1% Penicillin-Streptomycin, 1% L-Glutamine, 1% HEPES) in each well of 384-well plate (10 concentrations) in quadruplicate.
(§3) 1 mL Aliquots of MT4 cells were pre-infected for 3 hours at 37° C. with 25 μL of cell growth medium (mock-infected) or a fresh 1:250 dilution of an HIV-IIIb (wildtype, IN T174I BT, or IN T174I DE) concentrated ABI stock (0.004 m.o.i.). IN T174I BT virus was derived from viral breakthrough (BT) assay as described in Mulato, A.; Hansen, D.; Thielen, A.; Porter, D.; Stepan, G.; White, K.; Daeumer, M.; Cihlar, T.; Yant, S. R. AIDS Research and Human Retrovirues, July 2016, ahead of print. doi:10.1089/aid.2016.0071. IN T174I DE virus was derived from serial passaging with dose escalation (DE) of test compound. Infected and uninfected cells were diluted in cell growth media and 35 μL (2000 cells) was added to each well of the assay plates.
(§4) Assay plates were then maintained in a humidified, 5% CO2 incubator at 37° C. After 5 days of incubation, 25 μl of 2× concentrated CellTiter-Glo™ Reagent (catalog # G7573, Promega Biosciences, Inc., Madison, Wis.) was added to each well of the assay plate. Cell lysis was carried out by incubating at room temperature for 10 minutes and then chemiluminescence was read using an Envision plate reader (PerkinElmer). EC50 values were calculated as the compound concentration that caused a 50% […] in luminescence signal, a measure of HIV-1 replication.

[2] = test system: HIV-IIIb IN T174I BT; assay: Antiviral assay in MT4 cells, HIV-IIIb IN T174I BT virus (from viral breakthrough); conditions: Human immunodeficiency virus 1, IIIB, MT4, 120 h, read-out: T174I BT EC50, MT4 cells, HIV-IIIb IN T174I BT (viral breakthrough), 5 days, CellTiter-Glo
Method: as §1, §2, §3, §4

[3] = test system: HIV-IIIb IN T174I DE; assay: Antiviral assay in MT4 cells, HIV-IIIb IN T174I DE virus (from dose escalation passaging); conditions: Human immunodeficiency virus 1, IIIB, MT4, 120 h, read-out: T174I DE EC50, MT4 cells, HIV-IIIb IN T174I DE (dose escalation), 5 days, CellTiter-Glo
Method: as §1, §2, §3, §4

[4] = Human immunodeficiency virus 1, IIIB, MT4, 120 h
[5] = Human immunodeficiency virus 1, 120 h, MT4 cells, HIV-IIIb wildtype, 5 days, CellTiter-Glo

Compound	pEC50 [1, 4]	pEC50 [2]	pEC50 [3]	pEC50 [1, 5]
COCCN1CC[C@H](c2nn(C)c3ccc(-c4nc5cc(C)c([C@H](OC(C)(C)C)C(=O)O)c(-c6ccc(Cl)cc6)c5s4)cc23)C1 (single isomer, unassigned) [Compound 68]	8.30	5.94	5.80	
Cc1cc2nc(-c3ccc4c(c3)c(N3CCC3=O)nn4C)sc2c(-c2ccc(Cl)cc2)c1[C@H](OC(C)(C)C)C(=O)O [Compound 3, (S)-2-(tert-butoxy)-2-(7-(4-chlorophenyl)-5-methyl-2-(1-methyl-3-(2-oxoazetidin-1-yl)-1H-indazol-5-yl)benzo[d]thiazol-6-yl)acetic Acid]	7.37	5.24	5.24	
Cc1cc2nc(-c3ccc4c(c3)c(N3CCN5CCOC[C@@H]5C3)nn4C)sc2c(-c2ccc(Cl)cc2)c1[C@H](OC(C)(C)C)C(=O)O [Compound 4, (S)-2-(tert-butoxy)-2-(7-(4-chlorophenyl)-2-(3-((S)-hexahydropyrazino[2,1-c][1,4]oxazin-8(1H)-yl)-1-methyl-1H-indazol-5-yl)-5-methylbenzo[d]thiazol-6-yl)acetic Acid]	8.00	5.90	5.76	
COC(=O)N1CC[C@@H]1CN1CCC(c2nn(C)c3ccc(-c4nc5cc(C)c([C@H](OC(C)(C)C)C(=O)O)c(-c6ccc(Cl)cc6)c5s4)cc23)CC1 [Compound 5, (S)-2-(tert-butoxy)-2-(7-(4-chlorophenyl)-2-(3-(1-(((R)-1-(methoxycarbonyl)azetidin-2-yl)methyl)piperidin-4-yl)-1-methyl-1H-indazol-5-yl)-5-methylbenzo[d]thiazol-6-yl)acetic Acid]	8.52	6.97	6.77	
Cc1cc2nc(-c3ccc4c(c3)c(C3CCN(CC5CCO5)CC3)nn4C)sc2c(-c2ccc(Cl)cc2)c1[C@H](OC(C)(C)C)C(=O)O (stereo partly drawn) [Compound 6, (2S)-2-(tert-butoxy)-2-(7-(4-chlorophenyl)-5-methyl-2-(1-methyl-3-(1-(oxetan-2-ylmethyl)piperidin-4-yl)-1H-indazol-5-yl)benzo[d]thiazol-6-yl)acetic Acid]	8.40	6.55	6.24	
CCC(=O)N1CC(N2CCC(c3nn(C)c4ccc(-c5nc6cc(C)c([C@H](OC(C)(C)C)C(=O)O)c(-c7ccc(Cl)cc7)c6s5)cc34)CC2)C1 [Compound 7, (S)-2-(tert-butoxy)-2-(7-(4-chlorophenyl)-5-methyl-2-(1-methyl-3-(1-(1-propionylazetidin-3-yl)piperidin-4-yl)-1H-indazol-5-yl)benzo[d]thiazol-6-yl)acetic Acid]	7.85	6.94	6.86	
Cc1cc2nc(-c3ccc4c(c3)c(C3CCN(C5CN(C(C)C(F)(F)F)C5)CC3)nn4C)sc2c(-c2ccc(Cl)cc2)c1[C@H](OC(C)(C)C)C(=O)O (stereo partly drawn) [Compound 8, (2S)-2-(tert-butoxy)-2-(7-(4-chlorophenyl)-5-methyl-2-(1-methyl-3-(1-(1-(1,1,1-trifluoropropan-2-yl)azetidin-3-yl)piperidin-4-yl)-1H-indazol-5-yl)benzo[d]thiazol-6-yl)acetic Acid]	7.89	5.96	5.87	
CC(=O)N1CC[C@H](N2CCC(c3nn(C)c4ccc(-c5nc6cc(C)c([C@H](OC(C)(C)C)C(=O)O)c(-c7ccc(Cl)cc7)c6s5)cc34)CC2)C1 [Compound 11, (S)-2-(2-(3-(1-((S)-1-acetylpyrrolidin-3-yl)piperidin-4-yl)-1-methyl-1H-indazol-5-yl)-7-(4-chlorophenyl)-5-methylbenzo[d]thiazol-6-yl)-2-(tert-butoxy)acetic Acid]	8.10	7.07	6.78	
CC(=O)N1CC[C@@H](N2CCC(c3nn(C)c4ccc(-c5nc6cc(C)c([C@H](OC(C)(C)C)C(=O)O)c(-c7ccc(Cl)cc7)c6s5)cc34)CC2)C1 [Compound 12, (S)-2-(2-(3-(1-((R)-1-acetylpyrrolidin-3-yl)piperidin-4-yl)-1-methyl-1H-indazol-5-yl)-7-(4-chlorophenyl)-5-methylbenzo[d]thiazol-6-yl)-2-(tert-butoxy)acetic Acid]	8.00	7.09	6.86	
Cc1cc2nc(-c3ccc4c(c3)c(N3C5CCC3CN(C3COC3)C5)nn4C)sc2c(-c2ccc(Cl)cc2)c1[C@H](OC(C)(C)C)C(=O)O [Compound 13, (2S)-2-(tert-butoxy)-2-(7-(4-chlorophenyl)-5-methyl-2-(1-methyl-3-(3-(oxetan-3-yl)-3,8-diazabicyclo[3.2.1]octan-8-yl)-1H-indazol-5-yl)benzo[d]thiazol-6-yl)acetic Acid]		5.91	5.50	8.00
COC(=O)N1CC(N2CCC(c3nn(C(F)F)c4ccc(-c5nc6cc(C)c([C@H](OC(C)(C)C)C(=O)O)c(-c7ccc(Cl)cc7)c6s5)nc34)CC2)C1 [Compound 14, (S)-2-(tert-butoxy)-2-(7-(4-chlorophenyl)-2-(1-(difluoromethyl)-3-(1-(1-(methoxycarbonyl)azetidin-3-yl)piperidin-4-yl)-1H-pyrazolo[4,3-b]pyridin-5-yl)-5-methylbenzo[d]thiazol-6-yl)acetic Acid]	8.30	6.96	6.52	
Cc1cc2nc(-c3cnc4c(n3)c(C3CCN(C5COC5)CC3)cn4C)sc2c(-c2ccc(Cl)cc2)c1[C@H](OC(C)(C)C)C(=O)O [Compound 16, (S)-2-(tert-butoxy)-2-(7-(4-chlorophenyl)-5-methyl-2-(5-methyl-7-(1-(oxetan-3-yl)piperidin-4-yl)-5H-pyrrolo[2,3-b]pyrazin-2-yl)benzo[d]thiazol-6-yl)acetic Acid]	8.70	6.98	6.22	
Cc1cc2nc(-c3ccc4c(c3)c(C3=CCOCC3)nn4C)sc2c(-c2ccc(Cl)cc2)c1[C@H](OC(C)(C)C)C(=O)O [Compound 18, (S)-2-(tert-butoxy)-2-(7-(4-chlorophenyl)-2-(3-(3,6-dihydro-2H-pyran-4-yl)-1-methyl-1H-indazol-5-yl)-5-methylbenzo[d]thiazol-6-yl)acetic Acid]	7.85	5.67	5.35	
Cc1cc2nc(-c3ccc4c(c3)c(C3CCN(C5(C)COC5)CC3)nn4C)sc2c(-c2ccc(Cl)cc2)c1[C@H](OC(C)(C)C)C(=O)O [Compound 20, (S)-2-(tert-butoxy)-2-(7-(4-chlorophenyl)-5-methyl-2-(1-methyl-3-(1-(3-methyloxetan-3-yl)piperidin-4-yl)-1H-indazol-5-yl)benzo[d]thiazol-6-yl)acetic Acid]	8.15	6.54	6.27	
Cc1cc2nc(-c3ccc4c(c3)c(C3CCN(C5COC5)CC3)nn4C)sc2c(-c2ccc(Cl)cc2)c1[C@H](OC1CC1)C(=O)O [Compound 22, (S)-2-(7-(4-chlorophenyl)-5-methyl-2-(1-methyl-3-(1-(oxetan-3-yl)piperidin-4-yl)-1H-indazol-5-yl)benzo[d]thiazol-6-yl)-2-cyclopropoxyacetic Acid]		7.32	6.97	7.64
Cc1cc2nc(-c3ccc4c(c3)c(C3CCN(C(=O)OC(C)(C)C)CC3)nn4C)sc2c(-c2ccc(Cl)cc2)c1[C@H](OC(C)(C)C)C(=O)O [Compound 23, (S)-2-(tert-butoxy)-2-(2-(3-(1-(tert-butoxycarbonyl)piperidin-4-yl)-1-methyl-1H-indazol-5-yl)-7-(4-chlorophenyl)-5-methylbenzo[d]thiazol-6-yl)acetic Acid]	7.00	6.01	6.45	
Cc1cc2nc(-c3ccc4c(c3)c(N3CCN(C)CC3=O)nn4C)sc2c(-c2ccc(Cl)cc2)c1[C@H](OC(C)(C)C)C(=O)O [Compound 87, (S)-2-(tert-butoxy)-2-(7-(4-chlorophenyl)-5-methyl-2-(1-methyl-3-(4-methyl-2-oxopiperazin-1-yl)-1H-indazol-5-yl)benzo[d]thiazol-6-yl)acetic acid]	7.89			
Cc1cc2nc(-c3ccc4c(n3)c(N3CCN(C)CC3)nn4C)sc2c(-c2ccc(Cl)cc2)c1[C@H](OC(C)(C)C)C(=O)O [Compound 196, (S)-2-(tert-butoxy)-2-(7-(4-chloro-phenyl)-5-methyl-2-(1-methyl-3-(4-methylpiperazin-1-yl)-1H-pyrazolo [4,3-b]pyridin-5-yl)benzo[d]thiazol-6-yl)acetic acid]	8.40			
